Measured values published in patent publication US10391070B2, “Compositions and methods for treating neurological diseases or injury” (MUSC FOUNDATION FOR RESEARCH DEVELOPMENT, priority 2012, dated 2019).

Tests used:
[1] = test system: maximal electroshock-induced seizures; assay: Maximal electroshock test; format: in vivo, mouse; conditions: mice; for animals protected/animals tested, 0.25 hr / animals protected/animals tested, 0.5 hr / animals protected/animals tested, 1.0 hr / animals protected/animals tested, 2.0 hr / animals protected/animals tested, 4.0 hr: 100 mg/kg i.p., maximal electroshock
Description: Mouse studies were performed by NIH Anticonvulsant Screening Program at the National Institute of Neurological Disorders and Stroke (Stables and Kupferberg, 1997) according to the established NIH experimental procedures outlined below. Compounds were delivered into mice by i.p. injection at a dose of 100 mg/kg in sterile 5% DMSO, 95% Neobee (Josey et al., 2013). One of four methods for seizure induction was subsequently administered to mice at 0.25, 0.5, 1, 2 and 4 h after treatment with compound. (1) Subcutaneous PTZ seizure threshold test. PTZ was administered at a concentration of 85 mg/kg, into the loose fold of skin in the midline of the neck. […] (2) Maximal electroshock test. 60 Hz of 50 mA alternating current was delivered for 0.2 s by corneal electrodes. Mice were considered protected from seizures when the hindlimb tonic extensor was absent (White et al., 1995). (3) Minimal clonic seizure (6 Hz) test. 6 Hz of 32 mA or 44 mA alternating current was delivered for 3 s by corneal electrodes to elicit a psychomotor seizure. Mice were considered protected from seizures when the automatistic behaviors were absent (Barton et al., 2001). (4) Corneal kindled mouse model. Mice were kindled electrically with a 3 s stimulation, 8 mA, 60 Hz, and corneal electrodes to a criterion of 10 consecutive Stage 5 seizures (facial clonus and head nodding progressing to forelimb clonus, and finally rearing and falling accompanied by a generalized clonic seizure as described by Racine, 1972). Animals generally reach Stage 5 after twice daily stimulation for 8 days. With continued stimulation once a day, animals usually progressed to a reproducible Stage 5 after 10-14 additional days. At least 72 hours after the mice were kindled, the test substance was administered i.p. and each animal was given the electrical stimulus indicated above. […] Treated animals not displaying a Stage 4 or 5 seizure were considered protected.
The data for each treatment is represented as the number of animals protected/number of animals tested.
The maximal electroshock-induced seizures (MES) test is a model for generalized tonic-clonic seizures and provides an indication of a compound's ability to prevent seizure spread when all neuronal circuits in the brain are maximally active. These seizures are highly reproducible and are electrophysiologically consistent with human seizures. An animal is considered “protected” from MES-induced seizures based on abolition of the hindlimb tonic extensor component of the seizure.

[2] = Antioxidant activity assay (DPPH free radical scavenging); conditions: 20 μM, 100 μM DPPH in methanol
Description: Antioxidant activity of various reagents was assayed as previously described by monitoring the disappearance of the optical absorbance of the stable-free radical DPPH on reaction with test compounds (Blois, 1958). The rate of the reaction represents the antioxidant potency of test agents. The known free radical scavenger Trolox and ascorbic acid were used as positive controls. Briefly, 10 μL of test reagents at final concentrations of 20 μM were added to 200 μL of 100 μM DPPH in methanol. Optical absorbance of DPPH at 517 nm was immediately monitored for 10 min.

HT22 cells = assay: Intracellular ROS measurement (Rho123, CM-H2DCFDA); format: cell-based, mouse; conditions: HT22, 10 mM glutamate 8 hrs, 250 nM
Description: Intracellular generation of ROS was evaluated by spectrofluorometry using the membrane-permeable compound dihydrorhodamine 123 (Rho123; Invitrogen), and images were collected using 5-(and -6)-chloromethyl-2′,7′-dichlorodihydrofluorescein diacetate, acetyl ester (CM-H2DCFDA; Invitrogen). Briefly, HT-22 cells were seeded onto black walled 96-well plates at 5.0×10^3 cells per well in 75 μL of medium and maintained at 37° C. in 5% CO2 overnight prior to the initiation of experimental treatments. Cells were subsequently treated with 25 μL of medium containing glutamate (monosodium glutamate, Sigma, 1 M stock concentration in media, to achieve a final concentration of 10 mM) plus inhibitors (stock in DMSO) and maintained at 37° C. in 5% CO2. After 8 hrs, Rho123 (5 μM), CM-H2DCFDA (1 μM), or MitoSox (5 μM) and Mitotracker DR (10 nM) was added to achieve the indicated final concentrations. Cells were allowed to incubate for 20 minutes and then washed twice with Hanks Balanced Salt Solution (HBSS; Hyclone; CaCl2 1.26 mM, MgCl2-6H2O 0.493 mM, MgSO4-7H2O 0.407 mM, KCl 5.33 mM, KH2PO4 0.441 mM, NaHCO3 4.17 mM, NaCl 137.93 mM, Na2HPO4 0.338 mM, D-Glucose 5.56 mM), with a final addition of 100 μL of HBSS in which the cells were visualized. Fluorescence of the oxidized Rho123 was measured using a Fluoroskan Ascent spectrofluorometer (Labsystems). Peak excitation and emission wavelengths were 500 and 536, respectively. For fluorescent imaging of the oxidation product of CM-H2DCFDA, cells were immediately visualized using an InCell 2000 Analyzer (GE) with a 40× objective and a FITC excitation/emission filter set. Image processing was performed using ImageJ, and for all images, the microscope and image processing settings, such as levels, brightness, contrast, and exposure time were held constant across all treatment conditions.

PTZ-induced seizures = assay: PTZ-induced seizure (swim activity) model in zebrafish larvae; format: in vivo, zebrafish (Danio rerio)

| Compound | anticonvulsant activity in maximal electroshock test [1] | animals protected/animals tested, 0.25 hr [1] | animals protected/animals tested, 0.5 hr [1] | animals protected/animals tested, 1.0 hr [1] | animals protected/animals tested, 2.0 hr [1] | animals protected/animals tested, 4.0 hr [1] | free radical scavenging capacity (DPPH absorbance) [2] | ROS accumulation (Rho123) (HT22 cells) | fold reduction of PTZ-induced swim activity (distance traveled) (PTZ-induced seizures; 7 dpf zebrafish, 1 h pretreatment, 15 mM PTZ, 2j 10 μM, 2h 20 μM, 2q 20 μM, 3n 8 μM) | fold reduction of distance traveled from PTZ levels (PTZ-induced seizures; 7 dpf zebrafish, 1.5 μM) [fold] | fold reduction of PTZ-induced swim behavior (PTZ-induced seizures; 7 dpf zebrafish, 3 μM) [fold] | fold reduction of distance traveled after PTZ treatment (PTZ-induced seizures; 7 dpf zebrafish, 6 μM, 1 h pretreatment, 15 mM PTZ) | concentrations reducing seizure activity (PTZ-induced seizures; PTZ-treated 6 dpf zebrafish, dose dependent) [µM] | reduction of seizures (PTZ-induced seizures; PTZ-treated 6 dpf zebrafish, up to 100 mM) |
| --- | --- | --- | --- | --- | --- | --- | --- | --- | --- | --- | --- | --- | --- | --- |
| C#CCNC1=CC(=O)c2ccccc2C1=O [Compound 2h, 2-(prop-2-yn-1-ylamino)naphthalene-1,4-dione] | limited anticonvulsant activity | 0/4 | 0/4 | 0/4 | 1/4 | 1/4 |  |  |  |  |  |  |  |  |
| O=C1C=C(NCc2ccccc2)C(=O)c2ccccc21 [Compound 2j, 2-(benzylamino)naphthalene-1,4-dione] | limited anticonvulsant activity | 0/4 | 0/4 | 0/4 | 2/4 | 0/4 | did not show direct antioxidant capacity | prevent the accumulation of ROS |  |  |  |  |  |  |
| O=C1C=C(NCc2cccc(Cl)c2)C(=O)c2ccccc21 [Compound 2q, 2-((3-chlorobenzyl)amino)naphthalene-1,4-dione] |  | 0/4 | 0/4 | 0/4 | 0/4 | 0/4 | did not show direct antioxidant capacity | prevent the accumulation of ROS | more than two fold |  |  |  |  |  |
| CC1=CC(=O)c2ccccc2C1=O [VK3, menadione, reference compound] |  |  |  |  |  |  |  |  |  | 0.5 | 2 | more than 4 fold | 1.5 to 6 |  |
| menaquinones [VK2, reference compound] |  |  |  |  |  |  | did not show direct antioxidant capacity | less effective |  |  |  |  |  | neither were found to reduce seizures |
